Data on three compounds can be found in patent publication US20190194621A1, “MEDIUM FOR CULTURING STEM CELLS, METHOD FOR CULTURING STEM CELLS, GROWTH PROMOTER FOR STEM CELLS, AND CELL COMPOSITION AND METHOD FOR PRODUCING SAME” (KYOWA HAKKO BIO CO., LTD., priority 2016, published 2019).

The test deals with human iPS cell 253G1 cell line. The test is described as follows: Culture of human iPS cells in growth-factor-free medium with added compound; count of Hoechst-stained nuclei and OCT3/4 positive cells. In kind it is cell-based. The note with it: for number of nuclei counted, increase as compared with the medium to which no growth factor was added (−GF) / expression ratio of OCT3/4 (proportion of Oct3/4 positive cells among Hoechst 33342 stained cells): 5 μM HA100, 0.05 μM DZNep or 0.01 nM TTNPB in growth-factor-free medium; for number of nuclei counted, increase as compared with the medium to which no growth factor was added (−GF): 3 days, 37° C., 10% CO2, average of four experiments; for expression ratio of OCT3/4 (proportion of Oct3/4 positive cells among Hoechst 33342 stained cells): +GF = 2 ng/mL activin A and 5 ng/mL bFGF. Here is the method:
A medium obtained by adding and dissolving separate components shown in the following Table 1 sterilized through a 0.22 μm filter, 10 μg/mL insulin (manufactured by Sigma-Aldrich Co. LLC.), 5 μg/mL apotransferrin (manufactured by Sigma-Aldrich Co. LLC.), and oleic acid-conjugated recombinant human serum albumin (manufactured by Sigma-Aldrich Co. LLC.) in a known medium (mESF Basal Medium, manufactured by Wako Pure Chemical Industries, Ltd.) was used as a medium in a negative control group. A medium obtained by adding 5 μM HA100 that is a ROCK inhibitor and a PKC inhibitor, 0.05 μM DZNep that is a histone methyltransferase inhibitor, or 0.01 nM TTNPB that is a retinoic acid receptor agonist to the medium of the negative control group was used as a medium in an evaluation target group. Further, a medium obtained by adding 2 ng/mL activin A (manufactured by Wako Pure Chemical Industries, Ltd.) and 5 ng/mL bFGF (manufactured by Wako Pure Chemical Industries, Ltd.) to the medium of the negative control group was used as a medium of a positive control group. The prepared medium in the negative control group, media in the evaluation target group (the medium obtained by adding HA100 to the medium in the negative control group, the medium obtained by adding DZNep to the medium in the negative control group, and the medium obtained by adding TTNPB to the medium in the negative control group), and medium in the positive control group were added to a 24-well plate for cell culture (manufactured by Sumitomo Bakelite Company Limited) at 1 mL/well, and a human iPS cell 253G1 cell line (established by Center for iPS Cell Research and Application, Kyoto University and obtained from iPS Academia Japan, Inc.) was cultured in the presence of 10% CO2 at 37° C. for 3 days. With respect to the cultured cells, the nuclei were stained with Hoechst 33342 (manufactured by Dojindo Laboratories). Further, OCT3/4 protein in the cells was stained with OCT-3/4 antibody C-10 (manufactured by Santa Cruz Biotechnology) and […] anti-mouse IgG (H+L) Secondary Antibod Alexa Fluor 488 conjugate (manufactured by Invitorogen Co.). Thereafter, the number of stained nuclei and the number of Oct3/4 positive cells were counted using In cell analyzer (manufactured by GE Healthcare, Inc.).

In the case of `Nc1nccc2c1ncn2C1C=C(CO)C(O)C1O` (stereo not shown) [DZNep, 3-deazaneplanocin], the “number of nuclei counted, increase as compared with the medium to which no growth factor was added (−GF)” value is recorded as 1.35 times. Besides, where the note is “3 days culture”, the “expression ratio of OCT3/4 (proportion of Oct3/4 positive cells among Hoechst 33342 stained cells)” value (“expression ratio” for short) is on record as 95.6%.
As for `Cl.O=S(=O)(c1cccc2cnccc12)N1CCNCC1` [HA100, 1-(5-isoquinolinesulfonyl)piperazine hydrochloride], the “number of nuclei counted, increase as compared with the medium to which no growth factor was added (−GF)” value amounted to 1.83 times. For the same compound, the “expression ratio” value (3 days culture) stood at 89.3%. Under “5 μM HA100 in growth-factor-free medium, 3 days culture”, the “growth compared with the medium to which a growth factor was added (+GF)” value is reported as “growth comparable to that in the case of using the medium to which a growth factor was added”.
As for `C/C(=C\c1ccc(C(=O)O)cc1)c1ccc2c(c1)C(C)(C)CCC2(C)C` [TTNPB, 4-[(E)-2-(5,6,7,8-tetrahydro-5,5,8,8-tetramethyl-2-naphthalenyl)-1-propenyl]benzoic acid], the “number of nuclei counted, increase as compared with the medium to which no growth factor was added (−GF)” value is 1.24 times. The “expression ratio” value (3 days culture) was found to be 84.2%.
